We go through 30 compounds from US20140288077A1, “SUBSTITUTED 4-PHENOXYPHENOL ANALOGS AS MODULATORS OF PROLIFERATING CELL NUCLEAR ANTIGEN ACTIVITY” (ST. JUDE CHILDREN'S RESEARCH HOSPITAL, priority 2011, published 2014).

T1 sequence (P12004 whole entry): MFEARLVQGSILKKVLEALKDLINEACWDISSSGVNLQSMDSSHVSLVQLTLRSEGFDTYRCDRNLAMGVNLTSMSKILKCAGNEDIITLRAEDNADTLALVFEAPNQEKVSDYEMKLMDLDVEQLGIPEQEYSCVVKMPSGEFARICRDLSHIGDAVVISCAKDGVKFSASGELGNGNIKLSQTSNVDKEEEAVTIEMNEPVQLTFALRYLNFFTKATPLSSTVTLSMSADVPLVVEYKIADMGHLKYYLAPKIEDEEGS

In the first test the test system is HeLa cells. Briefly: Cisplatin-induced DNA double-strand breaks (gH2Ax positive cells) by flow cytometry. The class given is cell-based. Particulars: with cisplatin, dose-dependent, FIG. 7. (In general: Flow cytometry measures light scatter and fluorescence of single cells or particles in a stream.)
Consider `N[C@H](CO)Cc1cc(I)c(Oc2ccc(O)cc2)c(I)c1` [(S)-T2AA, (S)-4-(4-(2-amino-3-hydroxypropyl)-2,6-diiodophenoxy)phenol], for which the “cisplatin-induced DNA double-strand breaks (gH2Ax positive cells)” value is “at least a doubling”.

For another test, the system named is HeLa cells. Briefly: CellTiter-Glo cell viability assay with cisplatin. In kind it is cell-based. Conditions: increasing concentration of compound, 24 or 48 hours, FIG. 9. As to the method:
Cell viability was determined using CellTiter-Glo® Luminescent Cell Viability Assay (Promega Corporation, Madison, Wis.). Cell viability assays were carried out in 384-well plates after cells were treated for 24 or 48 hours with the disclosed compounds.
Background: Cellular ATP, detected with luciferase, serves as a proxy for viable cell number.
Take `N[C@H](CO)Cc1cc(I)c(Oc2ccc(O)cc2)c(I)c1` [(S)-T2AA, (S)-4-(4-(2-amino-3-hydroxypropyl)-2,6-diiodophenoxy)phenol]: the “cell viability for a given concentration of cisplatin” value is “greater loss of cell viability”.

In another test the target is PCNA/full-length p21 interaction (Homo sapiens, UniProt P12004). Briefly: Pull-down competition assay: PCNA captured by immobilized full-length p21-His6. Particulars: FIG. 5, gel electrophoresis.
Chain of PCNA/full-length p21 interaction (P12004 whole entry): as above
Method: A H is protein interaction pull-down kit (Thermo Scientific) was used, in which a 4:1 mixture of TBS and lysis buffer provided in the kit was used as the buffer throughout. For immobilizing p21, 100 μg of p21His6 was incubated overnight at 4° C. with 25 μl (50% suspension) of prewashed cobalt chelate resin in 500 μl of the buffer and washed with the buffer four times. […] After the mixture was incubated overnight at 4° C., the resin was washed with buffer four times, and the bound proteins were eluted with 100 μl of the buffer containing 400 mM imidazole. Each 10 μl of the eluted samples was analyzed by SDS-PAGE with Oriole fluorescent gel stain (BioRad) and a Fluor Chem imager (Alpha Innotech).
Take `CS(=O)(=O)NC(=O)CCc1cc(I)c(Oc2ccc(O)cc2)c(I)c1` [MLAE-038, 3-(4-(4-hydroxyphenoxy)-3,5-diiodophenyl)-N-(methylsulfonyl)propanamide]: the “level of PCNA captured by His6 p21” value is “decreased significantly”.

A further test has as its system DNA polymerase present in a CHO lysate. The test is described as follows: In vitro translesion DNA synthesis past a cisplatin adduct. Particulars: FIG. 8. The class given is biochemical. The source says:
In a further experiment, an in vitro […] DNA polymerization assay was used (e.g. see Hoffman, et al., Proc Natl Acad Sci USA (1996) 93(24), 13766-9). The assay measures the ability of DNA polymerase present in a CHO lysate to catalyze synthesis of a DNA strand past a cisplatin adduct in an oligonucleotide template. The data in FIG. 8 outline the assay approach in the upper panel, and the gel electrophoresis data are shown in the lower panel. […] The negative control lanes (right side of gel image showing the levels of DMSO contributed by the compound) show not effect on DNA synthesis.
`N[C@H](CO)Cc1cc(I)c(Oc2ccc(O)cc2)c(I)c1` [(S)-T2AA, (S)-4-(4-(2-amino-3-hydroxypropyl)-2,6-diiodophenoxy)phenol]: the “DNA synthesis past the cisplatin adduct (TLS product)” value is “inhibits”.

A further test addresses T1, human PCNA recombinant protein (Homo sapiens, UniProt P12004).
T1 construct: The full length human PCNA; made in house; host or cells: Escherichia coli BL21(DE3)
The test is described as follows: Fluorescent polarization assay: competition with 5-FAM-labeled PL peptide for PCNA. The class given is binding.
Conditions: not given
The source says:
To determine the binding of the disclosed compounds to the human PCNA recombinant protein, a fluorescence polarization assay was employed. The assay is based on competition between a fluorescent tracer and increasing amounts of competing compound, i.e. a disclosed compound, determined as fluorescence polarization intensity (mP). The fluorescent tracer was 5-carboxyfluorescein (5-FAM) labeled PL peptide (“FAM-PL”). […] PCNA was a recombinant protein purified using standard methods known to one skilled in the art using an expression construct obtained from Dr. Toshiki Tsurimoto, Kyusyu University, Japan.
The volumes of PCNA and FAM-PL were adjusted to ensure that the final concentration of PCNA was 200 nM and FAM-PL was 10 nM. Assays were carried out in 384 well plates in a total volume of about 20-30 μL. […] Fluorescence measurements were made immediately after dilution in the assay plate. […] FP values (P) were calculated in millipolarization units (mP),
where I∥ and I⊥ are the emission intensities recorded, respectively, in the parallel and perpendicular directions relative to the plane of excitation polarization, after background intensity correction. G-factor values (G) for the fluorescein spectral window were measured using 1 nM fluorescein.
Alternatively, the fluorescent polarization assay can be carried out as described in the following. […] Briefly, 20 μl of the assay solution was transferred into each well of a black 384-well plate using Wellmate (Matrix). […] The negative control in each plate was DMSO, whereas the positive control was unlabeled PL-peptide as a self-competitor. […] FP values were calculated in millipolarization units. All data processing was performed using in-house programs in the Pipeline Pilot (Accelrys, version 7.0.1). The quality of the primary screen was assessed by Z-prime and other screening quality metrics.
For orientation: IC50 means the point on the concentration scale where inhibition reaches its midpoint. `NCCc1cc(I)c(Oc2ccc(O)cc2)c(I)c1` [MLAG-087, 4-(4-(2-aminoethyl)-2,6-diiodophenoxy)phenol]: the IC50 amounted to 0.9 µM.

Still in this test, the particulars now being: Table 2; inhibition of FAM-PL peptide binding to PCNA; read-out: IC50.
As to `CS(=O)(=O)NC(=O)CCc1cc(I)c(Oc2ccc(O)cc2)c(I)c1` [MLAE-038, 3-(4-(4-hydroxyphenoxy)-3,5-diiodophenyl)-N-(methylsulfonyl)propanamide], the IC50 amounted to 20 µM.
Same read-out and setting: to `Oc1ccc(Oc2c(I)cc(C[C@H]3C[NH2+][Pt-2]([Cl])([Cl])[NH2+]3)cc2I)cc1` [SWUA_018, Dichloro((S)-4-(4-(2,3-diaminopropyl)-2,6-diiodophenoxy)phenol)platinum(II)] belongs 0.27 µM; to `CNC(=O)Cc1cc(I)c(Oc2ccc(O)cc2)c(I)c1` [MLAG-066-1, 2-(4-(4-hydroxyphenoxy)-3,5-diiodophenyl)-N-Methylacetamide], 8.3 µM; to `COc1ccc(S(=O)(=O)N[C@H](CO)Cc2cc(I)c(Oc3ccc(O)cc3)c(I)c2)cc1` [MLAE-058-3, (S)—N-(1-Hydroxy-3-(4-(4-hydroxyphenoxy)-3,5-diiodophenyl)propan-2-yl)-4-methoxybenzenesulfonamide], 9.7 µM.
On the same count and under the same terms, to `CCS(=O)(=O)N1CCN(C(=O)CCc2cc(I)c(Oc3ccc(O)cc3)c(I)c2)CC1` [MLAE-051-3, 1-(4-(Ethylsulfonyl)piperazin-1-Yl)-3-(4-(4-hydroxyphenoxy)-3,5-diiodophenyl)propan-1-one] belongs 2.7 µM; to `CNC(=O)CCc1cc(I)c(Oc2ccc(OC)cc2)c(I)c1` [MLAE-040, 3-(3,5-Diiodo-4-(4-methoxyphenoxy)phenyl)-N-methylpropanamide], 17 µM.
As for `CCCCCCNC(=O)NC[C@@H](N)Cc1cc(I)c(Oc2ccc(O)cc2)c(I)c1` [MLAF-086, (S)-1-(2-amino-3-(4-(4-hydroxyphenoxy)-3,5-diiodophenyl)propyl)-3-hexylurea], the IC50 was found to be 1.3 µM.
Take `COc1ccc(Oc2c(I)cc(CCC(=O)NS(C)(=O)=O)cc2I)cc1` [MLAE-036, 3-(3,5-diiodo-4-(4-methoxyphenoxy)phenyl)-N-(methylsulfonyl)propanamide]: the IC50 was above 50 µM.
The same measure, in the same setting: the same measure for `O=S(=O)(N[C@H](CO)Cc1cc(I)c(Oc2ccc(O)cc2)c(I)c1)c1ccccc1` [MLAE-058-2, (S)—N-(1-Hydroxy-3-(4-(4-hydroxyphenoxy)-3,5-diiodophenyl)propan-2-yl)benzenesulfonamide]: 6 µM; for `O=C(Cc1cc(I)c(Oc2ccc(O)c(I)c2)c(I)c1)NC1CCCCC1` [MLAE-029-2, N-Cyclohexyl-2-(4-(4-hydroxy-3-iodophenoxy)-3,5-diiodophenyl)acetamide]: above 50 µM.
On the same count and under the same terms, the same measure for `O=C1NC[C@H](Cc2cc(I)c(Oc3ccc(O)cc3)c(I)c2)N1` [MLAG-060, (S)-4-(4-(4-hydroxyphenoxy)-3,5-diiodobenzyl)imidazolidin-2-one]: 5.7 µM.
Still for that read-out and setting: the same measure for `O=C(Cc1cc(I)c(Oc2ccc(O)c(I)c2)c(I)c1)NCc1ccccc1` [MLAE-029-4, N-Benzyl-2-(4-(4-hydroxy-3-iodophenoxy)-3,5-diiodophenyl)acetamide]: above 50 µM; for `Cc1cc(CCC(=O)O)cc(C)c1Oc1ccc(O)cc1` [NF021111, 3-(4-(4-hydroxyphenoxy)-3,5-dimethylphenyl)propanoic acid]: above 50 µM.
As to `O=C(Cc1cc(I)c(Oc2ccc(O)cc2)c(I)c1)N1CCOCC1` [MLAE-047, 2-(4-(4-hydroxyphenoxy)-3,5-diiodophenyl)-1-morpholinoethanone], the IC50 turned out to be 6.3 µM.
Consider `O=C(CCc1ccc(I)c(Oc2ccc(O)cc2)c1I)NCCO` [MLAF-051], for which the IC50 was 9.5 µM.
The same measure, in the same setting: to `CN(C)C(=O)Cc1cc(I)c(Oc2ccc(O)cc2)c(I)c1` [MLAG-066-2, 2-(4-(4-hydroxyphenoxy)-3,5-diiodophenyl)-N,N-dimethylacetamide] belongs 7.5 µM; to `Cc1cc(Oc2c(I)cc(C[C@H](N)CO)cc2I)ccc1O` [MLAG-093, (S)-4-(4-(2-amino-3-hydroxypropyl)-2,6-diiodophenoxy)-2-methylphenol], 1.8 µM; to `CS(=O)(=O)NC(=O)CCc1cc(I)c(Oc2ccc(O)c(C(=O)Nc3ccccc3)c2)c(I)c1` [MLAF-012, 5-(2,6-diiodo-4-(3-(methylsulfonamido)-3-oxopropyl)phenoxy)-2-hydroxy-N-phenylbenzamide], above 50 µM.
On the same count and under the same terms, the same measure for `COc1ccc(Oc2c(I)cc(CC(=O)NS(C)(=O)=O)cc2I)cc1` [MLAE-046, 2-(3,5-Diiodo-4-(4-methoxyphenoxy)phenyl)-N-(methylsulfonyl)acetamide]: above 50 µM; for `COc1ccc(Oc2c(I)cc(CC(=O)N3CCNC(=O)C3)cc2I)cc1` [MLAE-045, 4-(2-(3,5-Diiodo-4-(4-methoxyphenoxy)phenyl)acetyl)piperazin-2-one]: 2.1 µM.
In the case of `O=C(O)CCc1ccc(I)c(Oc2ccc(O)cc2)c1I` [MLAF-050, 3-(3-(4-Hydroxyphenoxy)-2,4-diiodophenyl)propanoic acid], the IC50 worked out at 19 µM.
As to `O=S(=O)(N[C@H](CO)Cc1cc(I)c(Oc2ccc(O)cc2)c(I)c1)c1ccc(O)cc1` [MLAE-060, (S)-4-Hydroxy-N-(1-hydroxy-3-(4-(4-hydroxyphenoxy)-3,5-diiodophenyl)propan-2-yl)benzenesulfonamide], the IC50 worked out at 32 µM.
Same read-out and setting: to `O=C(CCc1cc(I)c(Oc2ccc(O)cc2)c(I)c1)N1CCCCC1` [MLAE-041, 3-(4-(4-hydroxyphenoxy)-3,5-diiodophenyl)-1-(piperidin-1-yl)propan-1-one] belongs 2.4 µM; to `N[C@H](CNC(=O)CO)Cc1cc(I)c(Oc2ccc(O)cc2)c(I)c1` [MLAF-083, (S)—N-(2-amino-3-(4-(4-hydroxyphenoxy)-3,5-diiodophenyl)propyl)-2-hydroxyacetamide], 1.4 µM.
For `COCCCNC(=O)CCc1cc(I)c(Oc2ccc(O)cc2)c(I)c1` [MLAE-054-4, 3-(4-(4-Hydroxyphenoxy)-3,5-diiodophenyl)-N-(3-methoxypropyl)propanamide], the concentration for half-maximal inhibition (IC50) is 5.2 µM.
Consider `O=C(CCc1cc(I)c(Oc2ccc(O)c(C(=O)NCc3ccccc3)c2)c(I)c1)NCCO` [MLAF-008, N-Benzyl-2-hydroxy-5-(4-(3-((2-hydroxyethyl)amino)-3-oxopropyl)-2,6-diiodophenoxy)benzamide], for which the IC50 is 0.4 µM.
With `N[C@H](CNC(=O)NCc1ccccc1)Cc1cc(I)c(Oc2ccc(O)cc2)c(I)c1` [MLAF-085, (S)-1-(2-amino-3-(4-(4-hydroxyphenoxy)-3,5-diiodophenyl)propyl)-3-benzylurea], the IC50 worked out at 1 µM.

The same test, now with this note: incubation time 5 min (FIGS. 15-18); read-out: IC50 in fluorescent polarization assay.
As to `Oc1ccc(Oc2c(I)cc(C[C@H]3C[NH2+][Pt-2]([Cl])([Cl])[NH2+]3)cc2I)cc1` [dichloro((S)-4-(4-(2,3-diaminopropyl)-2,6-diiodophenoxy)phenol)platinum(II)], the IC50 is around 0.27 µM.
